Read-outs that look alike come from different tables or passages of the source.
Key:
[1] = tested on: previously reported racemase; conditions: naturally occurring aromatic amino acids; cited from earlier work
[2] = tested on: amino acid racemase and PAM; test: Coupled enzyme reaction (racemase + PAM, DKR conditions); assay type: biochemical; conditions: 0.4 mM racemic α-arylalanine, 200 μg/mL racemase, 100 μg/mL PAM, 20 h
Protocol: Coupled Enzyme Reaction. The coupled enzyme reaction mixture incubated at 31° C. contained partially purified amino acid racemase (200 μg) and PAM (100 μg) in 1 mL of 50 mM phosphate buffer (pH 8.0) containing 5% (v/v) glycerol. Each of the aryl α-amino acids (0.4 mM) were individually added to a separate assay tube containing the coupled enzyme mixture. After 20 h, the reactions were terminated by basification to pH 10-12 (with 0.5 N NaOH solution) and the amino acids were derivatized for quantification by chiral GC/EI-MS analysis as described previously.

[3] = target: T1, phenylalanine aminomutase (PAM) (Taxus canadensis, UniProt Q6GZ04); test: Effect of (R)-α-phenylalanine on PAM activity (kinetic constants)
T1 sequence (Q6GZ04 1-698): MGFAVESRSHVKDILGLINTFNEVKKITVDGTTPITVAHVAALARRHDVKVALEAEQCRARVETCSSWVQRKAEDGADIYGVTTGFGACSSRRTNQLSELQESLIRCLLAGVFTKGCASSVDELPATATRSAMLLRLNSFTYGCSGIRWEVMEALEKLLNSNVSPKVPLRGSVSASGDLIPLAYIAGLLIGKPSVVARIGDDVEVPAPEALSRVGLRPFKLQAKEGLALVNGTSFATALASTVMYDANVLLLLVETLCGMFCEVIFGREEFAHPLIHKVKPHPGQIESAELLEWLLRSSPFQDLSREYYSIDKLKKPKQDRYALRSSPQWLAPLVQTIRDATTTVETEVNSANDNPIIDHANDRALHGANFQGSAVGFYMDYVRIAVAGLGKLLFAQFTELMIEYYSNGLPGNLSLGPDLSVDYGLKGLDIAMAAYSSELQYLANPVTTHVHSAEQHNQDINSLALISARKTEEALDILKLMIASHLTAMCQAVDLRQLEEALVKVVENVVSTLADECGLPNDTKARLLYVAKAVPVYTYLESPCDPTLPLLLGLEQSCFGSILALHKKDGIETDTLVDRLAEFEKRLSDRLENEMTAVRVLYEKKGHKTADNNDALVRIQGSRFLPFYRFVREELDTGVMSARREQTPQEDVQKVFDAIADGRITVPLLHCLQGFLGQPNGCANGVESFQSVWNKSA
Protocol: Evaluation of the Effect of (R)-α-Phenylalanine on PAM Activity. Phenylalanine aminomutase (100 μg/mL) was added to 50 mM phosphate buffer (pH 8.0) containing 5% (v/v) glycerol at 31° C. containing either (S)-α-phenylalanine or (R)-β-phenylalanine at a range of concentrations (0.05, 0.10, 0.20, 0.40, 0.75, 1.5, and 3 mM). The reactions were incubated at 31° C. for 90 min under steady state conditions. Identical series of assays were run in parallel for the (S)-α- or (R)-β-phenylalanine as substrates, except 0.2 mM and 0.75 mM of (R)-α-phenylalanine were added separately to each series. Double reciprocal plots of velocity (vo) and concentration were constructed for the forward and reverse PAM reaction data sets. The equation of the best-fit line (R^2=0.98) was determined (Microsoft Excel 2003, Microsoft Corporation, Redmond, Wash.) to calculate the apparent KM and Ki for the appropriate reaction.^17

[4] = target: T1, phenylalanine aminomutase (PAM); set-up: His6 (N); made in house; host or cells: E. coli BL21(DE3); conditions: enantiopure (S)-α-phenylalanine, 10 μg/mL enzyme, 10 μM substrate, same temperature; cited from earlier work
[5] = target: T1, phenylalanine aminomutase (PAM); test: Equilibration of α- and β-arylalanines by PAM; assay type: biochemical; set-up: His6 (N); made in house; host or cells: E. coli BL21(DE3); conditions: 100 μg PAM, 31° C.; for β-product to α-substrate ratio: after 20 h, 0.4 mM substrate
Protocol: Assessing the Equilibration Rate of α- and β-Arylalanines by PAM. […] An aliquot was withdrawn from each reaction at five time points (0, 3, 6, 9 and 20 h). The ratio of (R)-β-arylalanine to (S)-α-arylalanine in each aliquot was calculated by GC/EI-MS fragmentation analysis and the abundances of the base peak fragment ions of the amino acid derivatives were compared as described earlier. The relative amount of each α-arylalanine and β-arylalanine at equilibrium was determined by linear regression analysis of the area of the base peak ion of the derivatized α- and β-arylalanines generated in the EI-MS. The peak area was converted to concentration of product (or substrate) by solving the corresponding linear equation, derived by plotting the area of the base peak ion (produced by the corresponding authentic standard in the mass spectrometer) against concentration ranging from 0 to 1.5 mM.

[6] = target: T2, amino acid racemase from Pseudomonas putida (KT2440) (Pseudomonas putida, UniProt Q88GJ9); test: Racemization of α-arylalanines by amino acid racemase; assay type: biochemical
T2 construct: His6 (N); made in house; host or cells: E. coli BL21(DE3)
T2 sequence (Q88GJ9 25-409): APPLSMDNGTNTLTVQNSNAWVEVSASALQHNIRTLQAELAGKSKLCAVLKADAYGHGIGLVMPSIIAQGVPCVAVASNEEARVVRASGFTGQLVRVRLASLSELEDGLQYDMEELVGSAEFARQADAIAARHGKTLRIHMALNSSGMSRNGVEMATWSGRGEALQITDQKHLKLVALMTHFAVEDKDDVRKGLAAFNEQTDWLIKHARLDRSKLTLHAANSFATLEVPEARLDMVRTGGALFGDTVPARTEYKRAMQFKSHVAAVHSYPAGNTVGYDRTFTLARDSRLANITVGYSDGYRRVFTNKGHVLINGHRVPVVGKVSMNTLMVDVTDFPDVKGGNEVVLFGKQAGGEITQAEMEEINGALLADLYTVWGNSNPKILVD
Protocol: Assessing the Racemization Rate of α-Arylalanines by the Amino Acid Racemase. The partially purified (>90%) amino acid racemase (200 μg/mL) was added to 2.5 mL of 50 mM phosphate buffer (pH 8.0) containing 5% (v/v) glycerol and one different (S)-α-arylalanine (1.5 mM) in separate assays; the mixtures were incubated at 31° C. An aliquot was withdrawn from each reaction at five time points (0.5, 10, 30, 60, and 360 min). A similar time course experiment was conducted with (R)-α-phenylalanine.
Cofactor Dependency of the Amino Acid Racemase. To assess whether sufficient PLP, made by the E. coli BL21(DE3) expression host, remained bound to the functional PLP-dependent racemase for the duration of the assay, partially purified enzyme (400 μg) was added to each of two 2-mL assays that contained (S)-α-phenylalanine (1.5 mM). To one assay, exogenous PLP (50 μM) was added, and to the other, no cofactor was added. After 6 h, the contents of the reaction vial without PLP added were divided into two fractions […]; to one fraction was added PLP (50 μM), and the other fraction remained unchanged. Additional (S)-α-phenylalanine was added to a final concentration of 1.5 mM in all three assays, and incubated for 14 h.
Evaluation of the Effect of (R)-β-Phenylalanine on Racemase Activity. The partially purified amino acid racemase (400 μg) in 50 mM phosphate (2 mL, pH 8.0) containing 5% (v/v) glycerol buffer and (S)-α-phenylalanine (0.75 mM) was incubated in separate assays with or without (R)-β-phenylalanine (0.75 mM) added. Aliquots (0.5 mL) of each reaction mixture were withdrawn from each assay at three time points (30, 60 and 360 min). The amino acids in each fraction were derivatized and analyzed by chiral GC/EI-MS as described previously. The mol % of (S)-α-, (R)-α-arylalanine, and (R)-β-arylalanine in each sample were assessed by comparing the abundance of the diagnostic base peak fragment ion (m/z) derived by GC/EI-MS fragmentation for each of the corresponding analytes.

## N[C@@H](Cc1c[nH]c2ccccc12)C(=O)O [tryptophan]
[1]
  Vrel: 0.004

## Cc1ccc(CC(N)C(=O)O)cc1 (racemic) [4′-methyl-α-arylalanine, (R,S)-2-amino-3-(4′-methylphenyl)propionic acid]
[2]
  increase in conversion to (R)-β-arylalanine under DKR conditions compared to PAM alone: 12%

## NC(Cc1cccs1)C(=O)O (racemic) [2′-thienyl-α-arylalanine, (R,S)-3-(2′-thienyl)alanine]
[2]
  increase in conversion to (R)-β-arylalanine under DKR conditions compared to PAM alone: 12%

## (S)-α-phenylalanine
[3]; forward reaction, with (R)-α-phenylalanine, no evident change relative to no inhibitor
  Vmax: 0.1 µmol/min/mg
[3]; read-out: KM of PAM, in the absence of (R)-α-phenylalanine
  Km: 700 µM
[3]; read-out: apparent Michaelis constant (KM apparent), forward reaction, in the presence of (R)-α-phenylalanine
  Km: 1100 µM
[4]
  Keq (previous study): 1.1

## NC(Cc1ccc(F)cc1)C(=O)O (racemic) [4′-fluoro-α-arylalanine, 2-amino-3-(4′-fluorophenyl)propionic acid]
[2]
  increase in conversion to (R)-β-arylalanine under DKR conditions compared to PAM alone: 16%

## N[C@@H](Cc1ccccc1)C(=O)O (racemic) [phenylalanine]
[1]
  Vrel: 0.18
[2]
  increase in conversion to (R)-β-arylalanine under DKR conditions compared to PAM alone: 19%
[5]; racemic substrate 0.4 mM, 20 h
  Keq: 1.8

## N[C@H](CC(=O)O)c1ccccc1 [(R)-β-phenylalanine, (R)-3-amino-3-phenylpropionic acid]
[6]
  substrate of the racemase: nor was (R)-β-amino acid a substrate of the racemase
[6]; β-arylalanine added to racemization of (S)-α-arylalanine
  effect on racemase reaction rate / activity: not affect the reaction rate

## N[C@@H](Cc1c[nH]cn1)C(=O)O [histidine]
[1]
  Vrel: 1

## Cc1ncc(COP(=O)(O)O)c(C=O)c1O [PLP, pyridoxal-5′-phosphate, reference compound]
[6]; 1.5 mM α-arylalanines, exogenous PLP 50 μM
  change in racemase reaction rate with or without supplementation: No change in the reaction rate

## N[C@@H](Cc1ccco1)C(=O)O [(S)-2-furanyl-α-alanine, (S)-2-amino-3-(2′-furanyl)propionic acid]
[5]
  β-product to α-substrate ratio: 0.41

## N[C@H](Cc1ccccc1)C(=O)O [(R)-α-Phenylalanine, (R)-α-phenylalanine]
[3]; 0.2 mM and 0.75 mM (R)-α-phenylalanine
  inhibition of the PAM reaction (forward): did not significantly inhibit
[3]; (R)-β-phenylalanine as substrate
  inhibition of the reverse PAM reaction: not inhibited

## NC(Cc1cccc(F)c1)C(=O)O (racemic) [3′-fluoro-α-arylalanine, 2-amino-3-(3′-fluorophenyl)propionic acid]
[2]
  increase in conversion to (R)-β-arylalanine under DKR conditions compared to PAM alone: 14%

## N[C@@H](Cc1cccs1)C(=O)O [(S)-2-thienyl-α-alanine, (S)-3-(2′-thienyl)alanine]
[5]
  β-product to α-substrate ratio: 0.71

Reference: US20100285540A1, “Process for the preparation of (R)-Beta-Arylalanines by coupled Racemase/Aminomutase catalysis” (Board of Trustees of Michigan State University, priority 2009, published 2010)
